Values quoted from earlier work, collected in patent publication US10829440B2, “Antibacterial compounds and methods of making and using same” (Brown University, priority 2015, dated 2020).

System: LT
Details: cited from earlier work

For `CC1=N[C@@H]2[C@@H](O)[C@H](O)[C@@H](CO)O[C@@H]2S1` [NAG-thiazoline], the “binding of LT” value is listed as “weak binder”.
